Measured values from article PMC8273890, “Development of [^18F]AldoView as the First Highly Selective Aldosterone Synthase PET Tracer for Imaging of Primary Hyperaldosteronism” (Journal of Medicinal Chemistry, 2021).
Entries after “also recorded” stand apart in the source; their conditions may differ.

Experiments:
human CYP11B2 [1] = test system: human CYP11B2; set-up: method as in PMID 26005536; conditions: cited from earlier work
hCYP11B1 = test system: hCYP11B1; set-up: method as in PMID 26005536; conditions: read-out: IC50 CYP11B1; cited from earlier work
[2] = Dynamic PET/CT imaging in mice; format: in vivo, female BALB/c mice; conditions: PET
Procedure: Dynamic PET imaging was performed using a nanoScan PET-CT system manufactured by Mediso (Medical Imaging Systems, Budapest, Hungary). Mice (n = 6) were anaesthetized with isoflurane (2% v/v in oxygen) and placed on the preheated bed of the scanner (set at 38 °C). [^18F]AldoView (7.3 ± 4.1 MBq, formulated in 100–150 μl saline containing 5% ethanol) was injected into the tail vein via intravenous cannulation. After injection, the catheter was carefully removed. The breathing rate and body temperature of the animals were closely monitored during the dynamic PET scans and, if necessary, the isoflurane dose was adjusted. Scans were recorded over 1 h, and the animals were subsequently sacrificed by cervical dislocation. Quantification of the tissue uptake (in % ID/g) was carried out based on the regions of interest manually drawn on the CT using the software package VivoQuant 1.23 (inviCRO, Boston, USA).

[3] = Ex vivo biodistribution in mice (gamma counting); set-up: species or system female BALB/c mice
Procedure: [^18F]AldoView (6.6 ± 1.9 MBq, formulated in saline containing 5% ethanol) was administered intravenously into the tail vein of female wild-type BALB/c mice (n = 3–4 per time point) without anesthesia. At designated time points (15, 30, 60, and 120 min postinjection), animals were anesthetized with isoflurane (4% v/v in oxygen) and the blood was taken by cardiac puncture. Mice were subsequently sacrificed by cervical dislocation. The organs of interest were sampled and weighed, and the radioactivity content was measured by automated gamma counting (PerkinElmer Wizard^2). Results were expressed as % ID/g bodyweight.

human CYP11B2 [4] = assay: Inhibition of human CYP11B2 (aldosterone synthase), literature values; format: biochemical; conditions: human isoforms
CYP11B2 = target: T1, CYP11B2 (Homo sapiens, UniProt P19099); assay: Quantitative phosphorimaging (in vitro autoradiography) in human adrenal tissue sections; format: binding; conditions: for NSB (non-specific binding): with 25 μM AldoView
T1 construct: from tissue
T1 sequence (P19099 25-503): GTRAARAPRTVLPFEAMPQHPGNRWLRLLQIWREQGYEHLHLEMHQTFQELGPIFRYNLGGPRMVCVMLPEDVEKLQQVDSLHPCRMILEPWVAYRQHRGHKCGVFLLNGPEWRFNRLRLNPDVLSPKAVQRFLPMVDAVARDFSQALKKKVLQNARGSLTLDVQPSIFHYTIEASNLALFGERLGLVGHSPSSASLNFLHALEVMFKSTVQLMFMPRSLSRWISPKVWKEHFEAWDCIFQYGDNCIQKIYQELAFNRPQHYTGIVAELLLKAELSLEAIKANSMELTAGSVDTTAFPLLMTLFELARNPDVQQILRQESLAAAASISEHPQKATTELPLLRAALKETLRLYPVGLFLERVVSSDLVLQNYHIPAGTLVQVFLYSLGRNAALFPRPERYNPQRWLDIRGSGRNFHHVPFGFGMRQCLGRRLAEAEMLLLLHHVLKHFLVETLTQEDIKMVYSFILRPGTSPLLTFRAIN
Text: Adrenal surgical specimens were obtained from patients with Conn’s disease, Cushing’s disease, pheochromocytoma, and adrenal tumors, who had consented to the use of their tissue for research applications. Ethical approval was obtained from the UK Multicentre Research Ethics Committee (06/Q0104/133). Following routine adrenalectomy, surgical specimens were immediately flash frozen using a slurry of isopentane and dry ice. Cryosections (20 μm) obtained from the frozen tissue blocks were mounted on lysine-coated microscope slides and stored at −80 °C.
Thawed tissue sections on microscopic slides were dipped in pentane for 5 s to degrease the tissue. This step was required to avoid nonspecific binding (NSB), in particular to medullar fat. Tissue sections were subsequently rehydrated in tris-buffered saline (TBS; pH = 7.5) for 30 min and subsequently incubated with a solution of [^18F]AldoView in TBS for 60 min (1 mL per slide). For determination of the total binding (TB), [^18F]AldoView was diluted with TBS to a concentration of 2 MBq/mL. For the determination of NSB, a solution of the nonradioactive reference compound in ethanol (3.5 mM) was added to a solution of [^18F]AldoView in TBS and diluted to give a final AldoView concentration of 25 μM and a final [^18F]AldoView concentration of 2 MBq/mL. After incubation, unbound [^18F]AldoView was removed by washing the sections in ice-cold TBS (three times for 5 min) and water (1 min). Internal standards were prepared by serial dilution of the [^18F]AldoView solution used for determination of the TB. Tissue sections and internal standards absorbed on filter paper were left to air-dry and subsequently exposed to a phosphor screen (BAS-IP MS; GE Healthcare) overnight. Phosphorimaging was performed on a Typhoon Trio scanner (GE Healthcare). All phosphorimaging experiments were performed in at least three adjacent tissue sections per case, tissue block, and experimental condition (TB, NSB). Quantification of phosphor images was performed using the analysis software ImageJ (version 1.48).[28] Determination of TB and NSB (in kBq/cm^2; Table S1) was based on correlation curves generated from the internal standards. The specific [^18F]AldoView binding was calculated as the difference between TB and NSB.

[5] = Blood/plasma metabolite analysis by radio-HPLC; format: in vivo, female BALB/c mice
Procedure: Blood metabolite analysis was performed as part of the biodistribution studies (n = 2–3 per time point). Blood samples were collected in heparin-coated tubes, and an aliquot (20 μL) was taken for gamma counting. After centrifugation (5 min, 13,000 rpm), the plasma (∼500 μL) was separated. Plasma proteins were subsequently precipitated with ice-cold acetonitrile (1 mL), and samples were centrifuged (5 min, 13,000 rpm). An aliquot of the supernatant (500 μL) was separated from the pellet and diluted with water (500 μL). The recovery of radioactivity in the supernatant was near quantitative (>95%). Analysis was carried out by radio-HPLC using a Phenomenex Onyx monolithic C-18 column (100 × 10 mm). The mobile phase consisted of water and methanol, and the flow rate was 5 mL/min. An isocratic eluent (10% methanol in water) was used for 3 min, followed by a gradient from 10 to 70% methanol over 7 min.

[6] = biodistribution, 15 min postinjection
[7] = biodistribution, 30 min postinjection (peak)
[8] = specimen 1b (high), case 1, PHA
[9] = specimen 2b (high), case 2, PHA
[10] = specimen 2c (high), case 2, PHA
[11] = specimen 3b (high), case 3, PHA
[12] = specimen 6a, case 6, pheochromocytoma
[13] = specimen 6b, case 6, pheochromocytoma
[14] = specimen 7a, case 7, adrenal tumor

Fc1cncc(-c2nc3cc(F)c(F)cc3n2C2CC2)c1 [Compound 3, 1-Cyclopropyl-5,6-difluoro-2-(5-fluoropyridin-3-yl)-1H-benzo[d]imidazole, reference compound]
IC50 (human CYP11B2 [1]): 4.7 nM
IC50 (hCYP11B1): 435 nM

Fc1cc2nc(-c3cncc([18F])c3)n(C3CC3)c2cc1F [[^18F]AldoView]
IC50 (human CYP11B2 [1]): 4.7 nM
time for liver activity to decrease to half the peak value [2]: ≤ 30 min
peak liver activity ([2]; at 6 min postinjection): 48 ± 11 % ID/g
level of activity in muscle ([2]; knee extensors, throughout scan (1 h)): < 1.5 % ID/g
time of peak liver activity ([2]; postinjection): 6 min
ratio between tracer uptake in adrenals and kidneys ([3]; 15 min postinjection): 1.2
activity level in kidneys [3, 6]: 5.2 ± 3.5 % ID/g
activity level in liver [3, 6]: 11.8 ± 4.1 % ID/g
activity level in small intestines [3, 6]: 4.3 ± 4.7 % ID/g
activity level in adrenals ([3]; biodistribution, 15 min postinjection, n = 2): 6.1 % ID/g
activity level in adrenals ([3]; biodistribution, 30 min postinjection): 4.0 ± 2.5 % ID/g
activity level in kidneys [3, 7]: 5.7 ± 2.9 % ID/g
activity level in liver [3, 7]: 12.4 ± 5.9 % ID/g
activity level in adrenals ([3]; biodistribution, 60 min postinjection): 1.8 ± 1.1 % ID/g
hCYP11B2 selectivity (B2/B1 ratio) (human CYP11B2 [4]): 93
IC50 (hCYP11B1): 435 nM
tracer binding in specimens from control subjects (CYP11B2; n = 3): 2.6 ± 1.8 kBq/cm^2
tracer binding in CYP11B2-negative areas in specimens from patients with PHA (CYP11B2; n = 4): 3.2 ± 1.1 kBq/cm^2
SB (specific binding) (CYP11B2; specimen 1a, case 1, PHA): 19.7 kBq/cm2
TB (total binding) (CYP11B2; specimen 1a, case 1, PHA): 20.1 kBq/cm2
NSB (non-specific binding) (CYP11B2; specimen 1a, case 1, PHA): 0.4 kBq/cm2
SB (specific binding) (CYP11B2; [8]): 8.6 kBq/cm2
TB (total binding) (CYP11B2; [8]): 17.9 kBq/cm2
NSB (non-specific binding) (CYP11B2; [8]): 9.3 kBq/cm2
SB (specific binding) (CYP11B2; specimen 1b (low), case 1, PHA): 4.8 kBq/cm2
TB (total binding) (CYP11B2; specimen 1b (low), case 1, PHA): 5.6 kBq/cm2
NSB (non-specific binding) (CYP11B2; specimen 1b (low), case 1, PHA): 0.9 kBq/cm2
SB (specific binding) (CYP11B2; specimen 2a, case 2, PHA): 2.5 kBq/cm2
TB (total binding) (CYP11B2; specimen 2a, case 2, PHA): 2.8 kBq/cm2
NSB (non-specific binding) (CYP11B2; specimen 2a, case 2, PHA): 0.3 kBq/cm2
SB (specific binding) (CYP11B2; [9]): 18.9 kBq/cm2
TB (total binding) (CYP11B2; [9]): 20.2 kBq/cm2
NSB (non-specific binding) (CYP11B2; [9]): 1.3 kBq/cm2
SB (specific binding) (CYP11B2; specimen 2b (low), case 2, PHA): 2.1 kBq/cm2
TB (total binding) (CYP11B2; specimen 2b (low), case 2, PHA): 2.4 kBq/cm2
NSB (non-specific binding) (CYP11B2; specimen 2b (low), case 2, PHA): 0.3 kBq/cm2
SB (specific binding) (CYP11B2; [10]): 19.1 kBq/cm2
TB (total binding) (CYP11B2; [10]): 20.0 kBq/cm2
NSB (non-specific binding) (CYP11B2; [10]): 1.0 kBq/cm2
SB (specific binding) (CYP11B2; specimen 2c (low), case 2, PHA): 3.0 kBq/cm2
TB (total binding) (CYP11B2; specimen 2c (low), case 2, PHA): 3.3 kBq/cm2
NSB (non-specific binding) (CYP11B2; specimen 2c (low), case 2, PHA): 0.3 kBq/cm2
SB (specific binding) (CYP11B2; specimen 3a, case 3, PHA): 6.8 kBq/cm2
TB (total binding) (CYP11B2; specimen 3a, case 3, PHA): 7.6 kBq/cm2
NSB (non-specific binding) (CYP11B2; specimen 3a, case 3, PHA): 0.7 kBq/cm2
SB (specific binding) (CYP11B2; [11]): 10.4 kBq/cm2
TB (total binding) (CYP11B2; [11]): 15.5 kBq/cm2
NSB (non-specific binding) (CYP11B2; [11]): 5.1 kBq/cm2
SB (specific binding) (CYP11B2; specimen 3b (low), case 3, PHA): 3.0 kBq/cm2
TB (total binding) (CYP11B2; specimen 3b (low), case 3, PHA): 4.3 kBq/cm2
NSB (non-specific binding) (CYP11B2; specimen 3b (low), case 3, PHA): 1.2 kBq/cm2
SB (specific binding) (CYP11B2; specimen 4a, case 4, PHA): 3.6 kBq/cm2
TB (total binding) (CYP11B2; specimen 4a, case 4, PHA): 4.2 kBq/cm2
NSB (non-specific binding) (CYP11B2; specimen 4a, case 4, PHA): 0.6 kBq/cm2
SB (specific binding) (CYP11B2; specimen 4b, case 4, PHA): 16.5 kBq/cm2
TB (total binding) (CYP11B2; specimen 4b, case 4, PHA): 18.4 kBq/cm2
NSB (non-specific binding) (CYP11B2; specimen 4b, case 4, PHA): 1.9 kBq/cm2
SB (specific binding) (CYP11B2; specimen 5a, case 5, PHA): 5.1 kBq/cm2
TB (total binding) (CYP11B2; specimen 5a, case 5, PHA): 5.9 kBq/cm2
NSB (non-specific binding) (CYP11B2; specimen 5a, case 5, PHA): 0.8 kBq/cm2
SB (specific binding) (CYP11B2; specimen 5b, case 5, PHA): 4.2 kBq/cm2
TB (total binding) (CYP11B2; specimen 5b, case 5, PHA): 5.1 kBq/cm2
NSB (non-specific binding) (CYP11B2; specimen 5b, case 5, PHA): 0.9 kBq/cm2
SB (specific binding) (CYP11B2; specimen 5c, case 5, PHA): 3.5 kBq/cm2
TB (total binding) (CYP11B2; specimen 5c, case 5, PHA): 4.5 kBq/cm2
NSB (non-specific binding) (CYP11B2; specimen 5c, case 5, PHA): 1.0 kBq/cm2
SB (specific binding) (CYP11B2; [12]): < LOQ; also recorded: limit of quantification
TB (total binding) (CYP11B2; [12]): < LOQ
NSB (non-specific binding) (CYP11B2; [12]): < LOQ
SB (specific binding) (CYP11B2; [13]): 4.0 kBq/cm2
TB (total binding) (CYP11B2; [13]): 5.3 kBq/cm2
NSB (non-specific binding) (CYP11B2; [13]): 1.3 kBq/cm2
SB (specific binding) (CYP11B2; [14]): 0.5 kBq/cm2
TB (total binding) (CYP11B2; [14]): 1.7 kBq/cm2
NSB (non-specific binding) (CYP11B2; [14]): 1.2 kBq/cm2
SB (specific binding) (CYP11B2; specimen 8a, case 8, Cushing's): 3.2 kBq/cm2
TB (total binding) (CYP11B2; specimen 8a, case 8, Cushing's): 3.7 kBq/cm2
NSB (non-specific binding) (CYP11B2; specimen 8a, case 8, Cushing's): 0.5 kBq/cm2
intact parent fraction in blood ([5]; 15 min postinjection): 59%
intact parent fraction in blood ([5]; 30 min postinjection): 29%
intact parent fraction in blood ([5]; 60 min postinjection): 21%
tracer in blood ([5]; 120 min postinjection): still detectable in blood at 120 min, although at low levels
